# Data reported in PubChem BioAssay (NCI).
#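 Tested at 5 concentrations; 48 h exposure; 96-well plates; endpoints linearly interpolated, else capped at highest concentration. GI50 is the concentration that inhibits growth by half. The concentration for full growth arrest is given as TGI.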 Where a SMILES comes first, the peptide text is derived from it. Bridges are numbered along the chain shown (N, C = ends). [ ]: non-standard residue; d: D form. The star is where a group is joined. PhAc = O=C(Cc1ccccc1)*
# Assays:
# Test in all cases: DTP human tumour cell line panel, 48 h
# MALME-3M melanoma = test system: MALME-3M melanoma
# HOP-92 NSCLC = test system: HOP-92 NSCLC
# MDA-MB-231 breast = test system: MDA-MB-231 breast
# DU-145 prostate = test system: DU-145 prostate
# NCI-H460 lung = test system: NCI-H460 lung
# MCF7 breast = test system: MCF7 breast
# RPMI-8226 leukemia = test system: RPMI-8226 leukemia
# COLO 205 colon = test system: COLO 205 colon
# HCT-15 colon = test system: HCT-15 colon
# BT-549 breast = test system: BT-549 breast
# IGROV1 ovarian = test system: IGROV1 ovarian
# TK-10 renal = test system: TK-10 renal
# SR leukemia = test system: SR leukemia
# SK-MEL-28 melanoma = test system: SK-MEL-28 melanoma
# OVCAR-5 ovarian = test system: OVCAR-5 ovarian
# MDA-MB-435 = test system: MDA-MB-435
# SK-OV-3 ovarian = test system: SK-OV-3 ovarian
# UACC-62 melanoma = test system: UACC-62 melanoma
# T-47D breast = test system: T-47D breast
Compound,TGI (MALME-3M melanoma),TGI (HOP-92 NSCLC),TGI (MDA-MB-231 breast),TGI (DU-145 prostate),TGI (NCI-H460 lung),TGI (MCF7 breast),TGI (RPMI-8226 leukemia),TGI (COLO 205 colon),TGI (HCT-15 colon),TGI (BT-549 breast),TGI (IGROV1 ovarian),TGI (TK-10 renal),TGI (SR leukemia),TGI (SK-MEL-28 melanoma),TGI (OVCAR-5 ovarian),TGI (MDA-MB-435),TGI (SK-OV-3 ovarian),TGI (UACC-62 melanoma),GI50 (MALME-3M melanoma),TGI (T-47D breast)
CCOC(=O)C(NC(=O)C(CCCCNP(=O)(OCC)OCC)NC(=O)C(C)NC(C)=O)C(C)C (configuration not stated),> 100 µM,> 100 µM,> 100 µM,> 100 µM,> 100 µM,> 100 µM,> 100 µM,> 100 µM,> 100 µM,> 100 µM,> 100 µM,> 100 µM,> 100 µM,> 100 µM,> 100 µM,> 100 µM,–,–,–,–
CC(C)C1C(=O)NC(CO)Cc2c[nH]c3c(C(c4c[nH]c5ccccc45)C(O)CO)ccc(c23)N1C (configuration not stated),–,> 100 µM,–,–,> 100 µM,–,> 100 µM,38.6 µM,–,–,> 100 µM,> 100 µM,> 100 µM,> 100 µM,–,–,> 100 µM,> 100 µM,–,–
Cc1ccc2[nH]c3c(C)c4c(c(C)c3c2c1)CN(C)C=C4,4.58 µM,4.74 µM,–,–,12 µM,–,35.5 µM,1.4 µM,28.2 µM,–,7.38 µM,21.9 µM,> 36.8 µM,4.03 µM,9.41 µM,–,7.04 µM,3.15 µM,1.72 µM,–
O=C(/C=C/c1ccc(O)c(O)c1)OC1C[C@@](O)(C(=O)O)C[C@@H](O)[C@H]1OC(=O)/C=C/c1ccc(O)c(O)c1 (some centres not stated),> 100 µM,> 100 µM,–,–,> 100 µM,–,> 100 µM,> 100 µM,> 100 µM,–,> 100 µM,> 100 µM,> 100 µM,> 100 µM,> 100 µM,–,> 100 µM,> 100 µM,–,–
Cc1nnc2sc(Cl)nn12,85.6 µM,–,54.4 µM,> 100 µM,37.4 µM,29.5 µM,> 100 µM,29.9 µM,45.6 µM,46.7 µM,30.7 µM,68.5 µM,–,34.2 µM,44.5 µM,20.2 µM,31 µM,18.9 µM,–,73.4 µM
Cc1n[n+](CC(=O)c2ccccc2)c2sc(N)nn12,> 100 µM,–,> 100 µM,> 100 µM,> 100 µM,> 100 µM,> 100 µM,> 100 µM,> 100 µM,> 100 µM,> 100 µM,> 100 µM,–,> 100 µM,> 100 µM,> 100 µM,> 100 µM,> 100 µM,–,> 100 µM
O=C(CSc1nnc(Cc2ccccc2)o1)Nc1cccc(Cl)c1,> 100 µM,–,–,–,> 100 µM,–,> 100 µM,> 100 µM,> 100 µM,–,> 100 µM,> 100 µM,–,> 100 µM,> 100 µM,–,> 100 µM,–,–,–
Cc1cc2nc3c(C#N)c(-c4ccccc4)/c(=C\Nc4ccc(Cl)cc4)c(=O)n3c2cc1C,> 100 µM,–,> 100 µM,–,> 100 µM,> 100 µM,> 100 µM,> 100 µM,> 100 µM,> 100 µM,–,> 100 µM,–,> 100 µM,> 100 µM,> 100 µM,> 100 µM,–,–,> 100 µM
O=c1c(-c2c(-c3ccccc3)oc3ccc(Cl)cc3c2=O)c(-c2ccccc2)oc2ccc(Cl)cc12,> 100 µM,> 95 µM,> 83.7 µM,> 100 µM,> 100 µM,> 100 µM,> 100 µM,> 100 µM,> 100 µM,–,> 100 µM,> 100 µM,> 100 µM,> 100 µM,> 100 µM,> 100 µM,> 89.4 µM,> 100 µM,–,> 100 µM
CCCCOCn1c(=O)[nH]c(=O)c2ccccc21,–,> 100 µM,> 100 µM,> 100 µM,> 100 µM,> 100 µM,–,> 100 µM,> 100 µM,–,> 100 µM,> 100 µM,> 100 µM,> 100 µM,> 100 µM,> 100 µM,> 100 µM,> 100 µM,–,–
O=c1c(-c2ccccc2)c2oc(c1-c1ccccc1)CS(=O)(=O)CCC2,> 100 µM,> 100 µM,–,–,> 100 µM,–,> 100 µM,42.1 µM,32.9 µM,–,> 100 µM,> 100 µM,> 100 µM,38.3 µM,–,–,> 100 µM,54.3 µM,–,–
COc1cc(C2SCC(=O)N2Cc2ccccc2)cc(OC)c1OC (configuration not stated),–,71.8 µM,> 100 µM,> 100 µM,> 100 µM,> 100 µM,> 100 µM,> 100 µM,> 100 µM,> 100 µM,> 100 µM,> 100 µM,> 100 µM,> 100 µM,> 100 µM,> 100 µM,> 100 µM,> 100 µM,–,–
CC1(C)C(C#N)=[N+]([O-])C(C)(C)N1O,> 100 µM,> 100 µM,> 100 µM,> 100 µM,> 100 µM,> 100 µM,> 100 µM,> 100 µM,> 100 µM,–,> 100 µM,> 100 µM,> 100 µM,> 100 µM,> 100 µM,> 100 µM,> 100 µM,> 100 µM,–,> 100 µM
CCOC(=O)C1(C#N)C(c2ccccc2)CC(O)(c2ccc([N+](=O)[O-])cc2)C(C(=O)c2ccc([N+](=O)[O-])cc2)C1c1ccccc1 (configuration not stated),> 100 µM,–,–,–,> 100 µM,–,> 100 µM,> 100 µM,> 100 µM,–,> 100 µM,> 100 µM,> 100 µM,> 100 µM,> 100 µM,–,> 100 µM,> 100 µM,–,–
O=C(Cc1ccccc1)N[C@@H]1COC(=O)[C@@H]2CCCN2C(=O)[C@@H]2CCCN2C1=O (PhAc-[dS]-Pro-Pro; ester 1-C),> 100 µM,> 100 µM,> 100 µM,> 100 µM,> 100 µM,> 100 µM,–,> 100 µM,> 100 µM,–,> 100 µM,> 100 µM,> 100 µM,> 100 µM,> 100 µM,> 100 µM,> 100 µM,> 100 µM,–,> 100 µM
Cc1ccc(/C=N/Nc2nc3ccccc3s2)s1,> 100 µM,> 100 µM,89.8 µM,> 100 µM,–,> 100 µM,> 100 µM,> 100 µM,> 100 µM,–,> 100 µM,> 100 µM,–,> 100 µM,> 100 µM,> 100 µM,> 100 µM,> 100 µM,–,> 100 µM
O=c1cc(-c2ccccc2)oc2cc(OCC(O)COc3ccc4c(=O)cc(-c5ccccc5)oc4c3)ccc12,> 100 µM,95.5 µM,–,–,> 100 µM,–,> 100 µM,–,> 100 µM,–,> 100 µM,> 100 µM,–,> 100 µM,> 100 µM,–,76.7 µM,> 100 µM,–,–
CCC(=O)C1(N2CCOCC2)CCN(CCCC(=O)c2ccc(F)cc2)CC1,> 100 µM,–,> 100 µM,> 100 µM,> 100 µM,> 100 µM,> 100 µM,> 100 µM,> 100 µM,–,> 100 µM,> 100 µM,–,> 100 µM,> 100 µM,> 100 µM,> 100 µM,> 100 µM,–,> 100 µM
CCSC1=N/C(=C\c2ccco2)C(NN)=N1,> 50 µM,> 50 µM,> 50 µM,> 50 µM,> 50 µM,–,> 50 µM,> 50 µM,> 50 µM,> 50 µM,> 50 µM,> 50 µM,–,> 50 µM,> 50 µM,> 50 µM,> 50 µM,> 50 µM,–,> 50 µM
CC(C)(C)OC(=O)[C@@H]1CCC(=S)N1Cc1ccccc1,> 100 µM,> 100 µM,> 100 µM,> 100 µM,> 100 µM,> 100 µM,> 100 µM,> 100 µM,> 100 µM,> 100 µM,> 100 µM,> 100 µM,> 100 µM,> 100 µM,> 100 µM,> 100 µM,> 100 µM,> 100 µM,–,–
CN(C)C(=S)N1C(=S)N(c2ccccc2)C(=Nc2ccccc2)C1=Nc1ccccc1,> 100 µM,> 100 µM,> 100 µM,> 100 µM,> 100 µM,–,> 100 µM,> 100 µM,> 100 µM,–,> 100 µM,> 100 µM,> 100 µM,> 100 µM,> 100 µM,> 100 µM,> 100 µM,> 100 µM,–,> 100 µM
CC1=C(C)CC(C#N)(C#N)C(C#N)(C#N)C1,> 10 µM,> 6.48 µM,> 10 µM,> 10 µM,> 10 µM,> 10 µM,> 6.71 µM,> 6.8 µM,> 10 µM,–,> 5.87 µM,> 8.75 µM,> 5.17 µM,> 10 µM,> 10 µM,–,> 10 µM,> 10 µM,–,9.9 µM
Nc1ccc(Oc2ccc(C3(c4ccc(Oc5ccc(N)cc5)cc4)C4CC5C6CC7CC5C3C(C7)C6C4)cc2)cc1,> 100 µM,49 µM,77 µM,> 100 µM,> 100 µM,> 100 µM,> 100 µM,> 100 µM,> 100 µM,> 100 µM,> 100 µM,> 100 µM,> 100 µM,> 100 µM,> 100 µM,82.9 µM,–,> 100 µM,–,–
Cc1ccc2nc(N/N=C/c3ccc(C)s3)cc(C)c2c1,32 µM,21 µM,31.8 µM,23 µM,–,20 µM,56.6 µM,12.2 µM,15.3 µM,–,23.6 µM,25.2 µM,> 100 µM,28.9 µM,22 µM,23.1 µM,32.7 µM,23.6 µM,–,41.9 µM
CC1(C)Oc2ccc3c(=O)c(-c4ccccc4)c(-c4ccccc4)oc3c2C1C(=O)O (configuration not stated),> 100 µM,–,> 100 µM,> 100 µM,–,> 100 µM,–,> 100 µM,> 100 µM,> 100 µM,> 100 µM,> 100 µM,–,–,> 100 µM,> 100 µM,> 100 µM,> 100 µM,–,> 100 µM
CCOC(=O)C[C@@H](C)[C@]1(C(=O)OC)CCCC1=O,> 100 µM,> 100 µM,–,–,> 100 µM,–,> 71.4 µM,> 84.2 µM,> 100 µM,–,> 100 µM,> 100 µM,65.6 µM,> 100 µM,> 100 µM,–,> 100 µM,> 100 µM,–,–
O=C(/C=C/c1ccc(O)c(O)c1)OCc1ccccc1,80.4 µM,58 µM,67.1 µM,39.5 µM,> 100 µM,37.9 µM,32.2 µM,70.9 µM,> 100 µM,–,13.5 µM,54.3 µM,19.7 µM,61.3 µM,> 100 µM,97.3 µM,67.4 µM,53.9 µM,–,73.8 µM
CCCCCN1CCN(c2ncccn2)CC1,> 100 µM,> 100 µM,> 100 µM,> 100 µM,–,> 100 µM,> 100 µM,> 100 µM,> 100 µM,–,> 100 µM,> 100 µM,> 100 µM,> 100 µM,> 100 µM,> 100 µM,–,> 100 µM,–,> 100 µM
COc1ccc(/C=N/N=C(\N)NO)c(Cl)c1O,> 100 µM,> 100 µM,–,–,–,–,> 100 µM,> 100 µM,> 100 µM,–,> 100 µM,–,–,> 100 µM,6.86 µM,–,> 100 µM,> 100 µM,–,–
